Assays:
RASMCs [1] = test: Matrix elastin synthesis by RASMCs (Fastin assay; alkali-soluble and alkali-insoluble fractions); conditions: for increase of total matrix production: Example 3, growth factor only (no HA), 3 weeks
RASMCs [2] = test: RASMC proliferation (fluorometric DNA assay of cell layers); type: cell-based, rat
Method: At 1 and 21 days of culture, the DNA content of the cell layers was measured to determine the proliferation of SMCs and to normalize the measured amounts of synthesized matrix (elastin, collagen). The fluorometric DNA assay, described previously by Labarca and Paigen (Labarca C, Paigen K. A simple, rapid, and sensitive DNA assay procedure. Anal Biochem. 1980; 102:344-52), was performed on cell layers processed as described previously (Joddar B, Ramamurthi A. Fragment size- and dose-specific effects of hyaluronan on matrix synthesis by vascular smooth muscle cells. Biomaterials. 2006; 27(15): 2994-3004). Actual cell counts were then calculated on the basis of an estimated 6 pg DNA/cell.

RASMCs [3] = test: Collagen synthesis by RASMCs (hydroxy-proline assay); type: cell-based, rat
lysyl oxidase (LOX) [4] = test: LOX protein synthesis (Western blot of spent medium); conditions: Example 3, 16 day culture, alone or together with HA fragments
RASMCs [5] = test: Desmosine content of cell-matrix layers (ELISA); type: cell-based, rat; conditions: Example 1
Method: Desmosine content of the cell-matrix layers was determined in expectation that it would correlate with the amounts of crosslinked elastin and serve as an indirect confirmation of the earlier observed biochemical trends, with regard to synthesis of matrix elastin. To assess desmosine content, compounded test and control cell pellets were digested with collagenase type VII (Sigma; 12 h, 37° C.) and re-centrifuged (3000 g, 10 min, 4° C.) to obtain a supernatant (SI) and a pellet. This pellet was digested with pancreatic porcine elastase type III (Sigma; 12 h, 37° C.) to obtain a soluble peptide fraction (SII). Fractions SI and SII were pooled together, acid-hydrolyzed with 6 N HCl (110° C., 16 h), dried under a stream of inert N2, re-constituted in water and the desmosine content determined by ELISA as previously done.

RASMCs [6] = test: SDS-PAGE/Western blot of soluble tropoelastin in spent medium; type: cell-based, rat; conditions: Example 1, n=3/case
Method: SDS-PAGE and Western Blot were performed to confirm the observed biochemical trends for synthesis of soluble tropoelastin. Briefly, the aliquots of spent medium removed and pooled at bi-weekly intervals over the 21-day culture period, were lyophilized, assayed for protein content using a DC protein assay kit (Biorad Corporation, Hercules, Calif.), and subjected to SDS-PAGE and Western Blot. Optimized sample amounts (20 μg) were appropriately mixed and boiled (100° C., 5 min) with a loading buffer (2% w/v Sodium Dodecyl Sulfate (SDS), 62 mM Trizma base, 10% v/v Glycerol, 600 mM dithiothreitol), flash-spun in an ultracentrifuge (500 g, 2 min) and loaded under reduced conditions onto 10% w/v polyacrylamide gels (Novex Tris-Glycine gels, Invitrogen Corporation, Carlsbad, Calif.), with prestained protein standards ranging between 10-190 kDa (Benchmark Pre-stained Protein Ladder, Invitrogen) and western blot standards ranging between 20-220 kDa (MagicMark XP Western Protein Standards, Invitrogen). […] Following electrophoresis, the protein bands were transferred onto a PVDF pre-wetted membrane, developed, imaged using trans-white light, and quantified using the Alpha Innotech imaging software (Alpha Ease FC; Chemi-imager 4400) as described previously. […]

RASMCs [7] = test: Tropoelastin synthesis by RASMCs (Fastin assay of pooled spent medium); type: cell-based, rat; conditions: Example 1, 21-day culture, n=3
RASMCs [8] = test: Elastase degradation of elastin isolated from cultured cell layers; type: cell-based, rat; conditions: 8-hour enzymatic digestion
Method: Enzymatic degradation studies were performed to compare the impact of HA oligomer exposure and their mode of delivery on elastin matrix quality, particularly their resistance to enzymatic breakdown. Elastin matrices isolated by alkali digestion of aortae explanted from adult Sprague-Dawley rats served as additional controls for these studies. Briefly, adult rat aortal segments were removed from euthanized rats, from arch to the celiac axis, under sterile conditions, and spliced lengthwise in petri dishes containing cold phosphate-buffered saline (PBS) containing 2 mM Ca^2+. These spliced sections were then transferred to a dish containing 1-2 ml of collagenase (2 mg/ml; Worthington, Lakewood, N.J.) and incubated for 10 minutes at 37° C. DMEM:F12 media was then added to these collagenase treated samples and mixed well with gentle pipetting. Isolated aortal segments were further chopped crosswise into […] pieces and transferred using fine needles onto sterile petri dishes and stored in PBS at 4° C. until further use. Cell layers were scraped off the culture wells, pelleted by centrifugation (2000 g, 15 min), and stored at −20° C. in PBS until further use (n=9/case).
HA tetramers as described above in Example 1 were tethered onto 4-well glass chamber slides (Nalge Nunc International, Naperville, Ill.). […]

lysyl oxidase (LOX) [9] = target: T1, lysyl oxidase (LOX) (Rattus norvegicus, UniProt P16636); test: LOX functional activity (fluorometric Amplex red assay of spent medium); type: cell-based; conditions: 21 days
T1 construct: spent culture medium pooled at day 21 of a culture was assayed; endogenous in cells; host or cells: adult rat aortic smooth muscle cells (RASMCs; Cell Applications), spent culture medium
T1 sequence (P16636 163-411): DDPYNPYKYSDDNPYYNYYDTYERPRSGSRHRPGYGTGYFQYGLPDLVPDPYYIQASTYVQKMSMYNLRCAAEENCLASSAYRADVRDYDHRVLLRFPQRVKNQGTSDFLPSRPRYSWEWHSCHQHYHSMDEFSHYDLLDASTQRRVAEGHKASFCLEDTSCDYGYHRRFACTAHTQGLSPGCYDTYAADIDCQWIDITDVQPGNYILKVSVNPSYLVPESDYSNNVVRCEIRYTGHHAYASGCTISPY
Method: To determine LOX functional activity, spent culture medium pooled at day 21 of a culture was assayed using a fluorometric assay based on generation of H2O2 when LOX acts on a synthetic substrate. H2O2 was detected using an Amplex® red kit (Molecular Probes, OR,). The fluorescence intensities were recorded with excitation and emission wavelengths at 560 nm and 590 nm, respectively

In the case of “IGF-1: insulin-like growth factor, added at 500 ng/ml”, the “elastin matrix production compared to control” value (RASMCs [1]; Example 3, IGF-1 only with no HA) is reported as “did not upregulate”, the “increase of total matrix production” value (RASMCs [1]) is reported as 150±20% and the “inhibition of cell proliferation” value (RASMCs [2]; Example 3, 21 days, all cases except in the presence of oligomers and HMWHA) is reported as 50%.
In the case of “TGF-β: transforming growth factor, added at 1 ng/ml”, the collagen production (RASMCs [3]; Example 3, in inverse correlation to the added HA fragment size) is reported as “inhibit”, the “crosslinking of soluble tropoelastin into matrix elastin” value (RASMCs [1]; Example 3) is reported as “significantly enhance” and the “increase of total matrix production” value (RASMCs [1]) is reported as 270±12%. The LOX protein synthesis (lysyl oxidase (LOX) [4]) was “enhanced”.
`CC(=O)N[C@H]1[C@H](O[C@H]2[C@H](O)[C@@H](O)[C@H](O[C@H]3[C@H](O)[C@@H](CO)OC(O)[C@@H]3NC(C)=O)O[C@@H]2C(=O)O)O[C@H](CO)[C@@H](O)[C@@H]1O[C@@H]1O[C@H](C(=O)O)[C@@H](O)[C@H](O)[C@H]1O` (stereo partly drawn) [pure HA 4-mer] was tested, and the “collagen production (DNA normalized) relative to respective controls” value (RASMCs [3]; Example 1, 21-day culture) was 2.0±0.1 times, the “DNA normalized matrix elastin output relative to controls” value (RASMCs [1]; Example 1, 21-day culture) was 2.7±0.3 times and the “proliferation, times number at 1 day” value (RASMCs [2]; Example 1, 21 days of culture, n=3) was 1.66±0.05 times number at 1 day. The “desmosine amount normalized to DNA and to non-HA controls” value (RASMCs [5]) was 4.76±0.10, the “normalized tropoelastin band intensity (pixel intensity per ng DNA)” value (RASMCs [6]) was 0.15±0 and the “tropoelastin output (DNA normalized) relative to respective control cultures” value (RASMCs [7]) was 1.63±0.06 times. The “% weight loss of cell pellet elastin on elastase digestion” value (RASMCs [8]; exogenous HA 4 mers) was 35% and the “% weight loss of cell pellet elastin on elastase digestion” value (RASMCs [8]; surface-tethered HA 4 mers) was 50%.
`O=S(=O)([O-])[O-].[Na+].[Na+]` [sodium sulfate, reference compound] was tested, and the “total collagen output per ng DNA vs. non-additive controls” value (RASMCs [3]; Example 4, 0.01 M alone) was 1.1±0.13 fold, the “total collagen output per ng DNA vs. non-additive controls” value (RASMCs [3]; Example 4, 0.1 M alone) was 0.94±0.15 fold and the “RASMC proliferation vs. controls” value (RASMCs [2]; Example 4, alone, irrespective of the added dose (0.01 and 0.1 M)) was “no effect”.
In the case of `O=S(=O)([O-])[O-].[Cu+2]` [copper sulfate], the “total collagen output per ng DNA vs. non-additive controls” value (RASMCs [3]; Example 4, 0.01 M alone) is reported as 0.5±0.04 fold, the “collagen synthesis vs. controls” value (RASMCs [3]; Example 4, 0.01 M copper sulfate in the presence of oligomers, VLMW and HMW HA) is reported as “consistently suppressed” and the “total collagen output per ng DNA vs. non-additive controls” value (RASMCs [3]; Example 4, 0.1 M alone) is reported as 4.1±0.4 fold. For the same molecule, the cell proliferation (RASMCs [2]; Example 4, 0.01 M copper sulfate and HA fragments) was “stimulated”, the “LOX activity vs. controls” value (lysyl oxidase (LOX) [9]; Example 4, 0.01 M alone) was 1.4±0.2 and the “basal LOX functional activity” value (lysyl oxidase (LOX) [9]; Example 4, 0.1 M alone or concurrent with HA fragments (except VLMW HA)) was “no significant effect”.
